Measured values from PMC8778818, “Synthesis, Structural Characterization and Anticancer Activity of New 5-Trifluoromethyl-2-thioxo-thiazolo[4,5-d]pyrimidine Derivatives” (Pharmaceuticals, 2022).

Assays:
HS 578T = assay: NCI-60 screen, Breast Cancer HS 578T; assay type: cell-based, human; settings: for Growth of Cells (%): 10^−5 M one dose
[1] = test system: A375, C32, DU145, MCF-7/WT, CHO-K1 and HaCaT cell lines; assay: MTT cell viability assay, all six cell lines; assay type: cell-based; settings: mean over the six cell lines; read-out: Mean A: the mean IC50 for the given compound
Protocol: (§1) Twelve compounds (2a-e, 3a-d and 4a-c) at a concentration range of 50–5000 μM were tested for their antiproliferative potential against four human cancer cell lines (A375—melanotic melanoma, C32—amelanotic melanoma, DU145—prostate cancer androgen-independent, MCF-7/WT—breast adenocarcinoma) and two normal cell lines: Chinese Hamster Ovary (CHO-K1) and immortalized human keratinocytes from histologically normal skin (HaCaT).
(§2) To determine the antiproliferative activity of newly synthesized compounds, the following cell lines were used: human melanotic melanoma cell line (A375), human amelanotic melanoma cell line (C32), human breast adenocarcinoma cell line (MCF-7/WT), human prostate cancer androgen-independent (DU145) and two normal cell lines: hamster ovarian (CHO-K1) and immortalized human keratinocytes from histologically normal skin (HaCaT). The cells were obtained from the cell line bank of the Department of Molecular and Cellular Biology, Wroclaw Medical University. A375, C32, MCF-7/WT, DU145 and HaCaT cells were grown in a monolayer cultured in Dulbecco’s Modified Eagle’s Medium (DMEM, Sigma-Aldrich, Poznań, Poland), supplemented with 10% of fetal bovine serum (FBS, Gibco, Paisley, UK) and 1% of antibiotics (penicillin/streptomycin, Sigma-Aldrich) and CHO-K1 were grown in HAM’s F-12 medium (Sigma-Aldrich), supplemented with 10% fetal bovine serum (FBS, Gibco) and 1% of antibiotics (penicillin/streptomycin, Sigma-Aldrich). Cell lines were cultured in the polystyrene flasks 25 or 75 cm^2 (Thermo Fisher Scientific, Waltham, MA, USA), which were stored in 37 °C and 5% CO2 in a humidified 95% atmosphere (SteriCult, Thermo Scientific, Alab). The cell medium was exchanged twice a week. The exponentially growing cells were used throughout the experiments. The cells were rinsed with phosphate-buffered saline (PBS, Sigma-Aldrich) and trypsinized by Trypsin-EDTA 0.25% solution (Sigma-Aldrich).
(§3) The influence of the compounds was performed in a monolayer culture on cancer and normal cells. Compounds were initially dissolved in DMSO; further dilutions of the compound were performed in Dulbecco’s Modified Eagle’s Medium supplemented with 10% FBS. Compounds were tested in a 50–5000 µM concentration range. In the in vitro experiments, the concentrations of DMSO in the final solution of the compounds were used 0.05%; 0.1%; 0.5%; 1%, respectively.
(§4) Cell viability was determined using the MTT colorimetric assay. All cell lines were seeded into 96-well plates to a density of 3 × 10^4 cells/well. After 24 h, the culture supernatants were removed and appropriate dilutions of compounds in the culture medium (200 µL/well) were added to the cells’ monolayer cultures and incubated for an additional 72 h. After 72 h of exposition to the compounds and the removal of the culture medium, cell viability was determined by reducing the yellow dye 3-(4,5-dimethyl-2-thiazol)-2,5-diphenyl-2H-tetrazolium bromide (MTT assay, Sigma Saint Louis, MO, USA; In Vitro Toxicology Assay) to a blue formazan product. The absorbance of the resulting solutions in three duplicate experiments was measured at the wavelength of 560 nm in a microplate reader (EnSpire, Perkin Elmer, Kraków, Poland). MTT assay is a colorimetric method that estimates the rate of metabolism in viable cells. Absorbance is directly proportional to the number of viable cells. All the experiments were performed three times and the mean absorbance values were calculated. The methodology for the evaluation of the growth of human cancer and normal cells was described previously. The cell viability in each group was expressed as a percentage of control (untreated) cells.

PC-3 = assay: NCI-60 screen, Prostate C. PC-3; assay type: cell-based; settings: for Growth of Cells (%): PC-3, 10^−5 M one dose
BT-549 = assay: NCI-60 screen, Breast Cancer BT-549; assay type: cell-based, human; settings: for Growth of Cells (%): BT-549, 10^−5 M one dose
SF-539 = assay: NCI-60 screen, CNS Cancer SF-539; assay type: cell-based, human; settings: for Growth of Cells (%): SF-539, 10^−5 M one dose
RXF 393 = assay: NCI-60 screen, Renal Cancer RXF 393; assay type: cell-based, human; settings: for Growth of Cells (%): RXF 393, 10^−5 M one dose
CAKI-1 = assay: NCI-60 screen, Renal Cancer CAKI-1; assay type: cell-based, human; settings: for Growth of Cells (%): CAKI-1, 10^−5 M one dose
DU-145 = assay: NCI-60 screen, Prostate C. DU-145; assay type: cell-based; settings: for Growth of Cells (%): DU-145, 10^−5 M one dose
MCF-7/WT = assay: MTT cell viability assay, MCF-7/WT; assay type: cell-based; settings: Homo sapiens, MCF7, 72 h, mean ± SD
Protocol: as §1, §2, §3, §4

## O=c1[nH]c(C(F)(F)F)nc2c1sc(=S)n2-c1ccccc1 [Compound 2b, 3-phenyl-2-thioxo-5-(trifluoromethyl)-2,3-dihydro[1, 3]thiazolo[4,5-d]pyrimidin-7(6H)-one]
HS 578T
  Growth of Cells (%): 65.01%
[1]
  IC50: 468 µM
PC-3
  Growth of Cells (%): 100.88%
BT-549
  Growth of Cells (%): 130.31%
SF-539
  Growth of Cells (%): 114.10%
RXF 393
  Growth of Cells (%): 95.34%
CAKI-1
  Growth of Cells (%): 124.11%
DU-145
  Growth of Cells (%): 109.40%
MCF-7/WT
  IC50: 557 ± 22.9 µM

## FC(F)(F)c1nc(Cl)c2sc(=S)n(-c3ccccc3)c2n1 [Compound 3b, 7-chloro-3-phenyl-5-(trifluoromethyl)[1, 3]thiazolo[4,5-d]pyrimidine-2(3H)-thione]
HS 578T
  Growth of Cells (%): 21.84%
HS 578T; Homo sapiens, five doses 10^−4–10^−8 M
  GI50: 2.82 µM
HS 578T; Homo sapiens, five doses 10^−4–10^−8 M, read-out: log LC50 (the source's name) (converted)
  CC50: > 100 µM
HS 578T; five doses 10^−4–10^−8 M
  log TGI: −5.07 log M
[1]
  IC50: 43.8 µM
PC-3; Homo sapiens, PC-3, five doses 10^−4–10^−8 M
  GI50: 1.82 µM
PC-3; Homo sapiens, PC-3, five doses 10^−4–10^−8 M, read-out: log LC50 (the source's name) (converted)
  CC50: 6.76 µM
PC-3
  Growth of Cells (%): 53.66%
PC-3; PC-3, five doses 10^−4–10^−8 M
  log TGI: −5.45 log M
BT-549
  Growth of Cells (%): 73.90%
BT-549; BT-549, five doses 10^−4–10^−8 M
  log TGI: −5.50 log M
BT-549; Homo sapiens, BT-549, five doses 10^−4–10^−8 M
  GI50: 1.51 µM
BT-549; Homo sapiens, BT-549, five doses 10^−4–10^−8 M, read-out: log LC50 (the source's name) (converted)
  CC50: 6.76 µM
SF-539; Homo sapiens, SF-539, five doses 10^−4–10^−8 M
  GI50: 1.66 µM
SF-539; Homo sapiens, SF-539, five doses 10^−4–10^−8 M, read-out: log LC50 (the source's name) (converted)
  CC50: 5.89 µM
SF-539
  Growth of Cells (%): 75.80%
SF-539; SF-539, five doses 10^−4–10^−8 M
  log TGI: −5.50 log M
RXF 393; Homo sapiens, RXF 393, five doses 10^−4–10^−8 M
  GI50: 1.82 µM
RXF 393; Homo sapiens, RXF 393, five doses 10^−4–10^−8 M, read-out: log LC50 (the source's name) (converted)
  CC50: 6.17 µM
RXF 393
  Growth of Cells (%): −16.27%
RXF 393; RXF 393, five doses 10^−4–10^−8 M
  log TGI: −5.47 log M
CAKI-1
  Growth of Cells (%): 81.74%
CAKI-1; CAKI-1, five doses 10^−4–10^−8 M
  log TGI: −5.51 log M
CAKI-1; Homo sapiens, CAKI-1, five doses 10^−4–10^−8 M
  GI50: 1.66 µM
CAKI-1; Homo sapiens, CAKI-1, five doses 10^−4–10^−8 M, read-out: log LC50 (the source's name) (converted)
  CC50: 5.75 µM
DU-145
  Growth of Cells (%): 9.04%
DU-145; DU-145, five doses 10^−4–10^−8 M
  log TGI: −5.46 log M
DU-145; Homo sapiens, DU-145, read-out: log GI50 (converted)
  GI50: 1.86 µM
DU-145; Homo sapiens, DU-145, five doses 10^−4–10^−8 M, read-out: log LC50 (the source's name) (converted)
  CC50: 6.46 µM
MCF-7/WT
  IC50: 49 ± 1 µM

## CCNc1nc(C(F)(F)F)nc2c1sc(=S)n2-c1ccccc1 [Compound 4b, 7-(ethylamino)-3-phenyl-5-(trifluoromethyl)[1, 3]thiazolo[4,5-d]pyrimidine-2(3H)-thione]
HS 578T
  Growth of Cells (%): 106.83%
[1]
  IC50: 476 µM
BT-549
  Growth of Cells (%): 95.21%
SF-539
  Growth of Cells (%): 100.98%
RXF 393
  Growth of Cells (%): 100.09%
CAKI-1
  Growth of Cells (%): 93.63%
DU-145
  Growth of Cells (%): 101.28%
MCF-7/WT
  IC50: 686 ± 29.3 µM

## Fc1ccc(CNc2nc(C(F)(F)F)nc3c2sc(=S)n3-c2ccccc2)cc1 [Compound 4c]
HS 578T
  Growth of Cells (%): 125.43%
[1]
  IC50: 485 µM
PC-3
  Growth of Cells (%): 100.51%
BT-549
  Growth of Cells (%): 98.87%
SF-539
  Growth of Cells (%): 102.28%
RXF 393
  Growth of Cells (%): 104.44%
CAKI-1
  Growth of Cells (%): 94.38%
DU-145
  Growth of Cells (%): 122.63%
MCF-7/WT
  IC50: 568 ± 24.8 µM
